{"source": "ChEMBL document CHEMBL1135579", "about": "“Serine-threonine protein phosphatase inhibitors: development of potential therapeutic strategies” (J Med Chem, 2002)", "key": {"[1]": {"biological_target": "Serine/threonine-protein phosphatase PP1-gamma catalytic subunit (Homo sapiens, UniProt P36873, R96A)", "sequence (P36873 2-323 R96A limits assumed)": "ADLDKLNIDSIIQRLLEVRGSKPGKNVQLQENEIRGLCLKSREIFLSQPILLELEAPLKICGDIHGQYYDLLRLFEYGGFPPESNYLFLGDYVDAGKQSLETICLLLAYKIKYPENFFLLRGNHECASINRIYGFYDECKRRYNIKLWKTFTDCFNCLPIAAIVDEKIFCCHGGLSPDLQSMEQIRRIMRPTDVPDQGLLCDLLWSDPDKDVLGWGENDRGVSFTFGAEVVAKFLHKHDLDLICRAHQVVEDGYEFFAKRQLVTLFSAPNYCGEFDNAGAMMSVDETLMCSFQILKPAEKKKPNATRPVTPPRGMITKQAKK", "assay": "Inhibition of Serine/threonine protein phosphatase 1 (PP1) mutants by natural toxins in R96A"}, "[2]": {"biological_target": "Serine/threonine-protein phosphatase PP1-gamma catalytic subunit (Homo sapiens, UniProt P36873, R221S)", "sequence (P36873 2-323 R221S limits assumed)": "as the sequence (P36873 2-323 R96A limits assumed) above, with A95R, R220S counted along it", "assay": "Inhibition of Serine/threonine protein phosphatase 1 (PP1) mutants by natural toxins in R221S"}, "[3]": {"biological_target": "Serine/threonine-protein phosphatase PP1-gamma catalytic subunit (Homo sapiens, UniProt P36873, N124D)", "sequence (P36873 2-323 N124D limits assumed)": "as the sequence (P36873 2-323 R96A limits assumed) above, with A95R, N123D counted along it", "assay": "Inhibition of Serine/threonine protein phosphatase 1 (PP1) mutants by natural toxins in N124D"}, "[4]": {"biological_target": "Serine/threonine-protein phosphatase PP1-gamma catalytic subunit (Homo sapiens, UniProt P36873, H248N)", "sequence (P36873 2-323 H248N limits assumed)": "as the sequence (P36873 2-323 R96A limits assumed) above, with A95R, H247N counted along it", "assay": "Inhibition of Serine/threonine protein phosphatase 1 (PP1) mutants by natural toxins in H248N"}, "[5]": {"biological_target": "Serine/threonine-protein phosphatase PP1-gamma catalytic subunit (Homo sapiens, UniProt P36873, E275R)", "sequence (P36873 2-323 E275R limits assumed)": "as the sequence (P36873 2-323 R96A limits assumed) above, with A95R, E274R counted along it", "assay": "Inhibition of Serine/threonine protein phosphatase 1 (PP1) mutants by natural toxins in E275R"}, "[6]": {"biological_target": "Serine/threonine-protein phosphatase PP1-gamma catalytic subunit (Homo sapiens, UniProt P36873, C127S)", "sequence (P36873 2-323 C127S limits assumed)": "as the sequence (P36873 2-323 R96A limits assumed) above, with A95R, C126S counted along it", "assay": "Inhibition of Serine/threonine protein phosphatase 1 (PP1) mutants by natural toxins in C127S"}, "[7]": {"biological_target": "Serine/threonine-protein phosphatase PP1-gamma catalytic subunit (Homo sapiens, UniProt P36873, D208A)", "sequence (P36873 2-323 D208A limits assumed)": "as the sequence (P36873 2-323 R96A limits assumed) above, with A95R, D207A counted along it", "assay": "Inhibition of Serine/threonine protein phosphatase 1 (PP1) mutants by natural toxins in D208A"}, "[8]": {"biological_target": "T1, Serine/threonine-protein phosphatase PP1-gamma catalytic subunit (Homo sapiens, UniProt P36873)", "assay": "Inhibition of Serine/threonine protein phosphatase 1 (PP1) mutants by natural toxins in wild type"}, "[9]": {"assay": "Exogenous inhibition concentration of Serine/threonine protein phosphatase 2C (PP2C); NI means no inhibition."}, "[10]": {"biological_target": "Serine/threonine-protein phosphatase PP1-gamma catalytic subunit (Homo sapiens, UniProt P36873, Y272F)", "sequence (P36873 2-323 Y272F limits assumed)": "as the sequence (P36873 2-323 R96A limits assumed) above, with A95R, Y271F counted along it", "assay": "Inhibition of Serine/threonine protein phosphatase 1 (PP1) mutants by natural toxins in Y272F"}, "[11]": {"biological_target": "Serine/threonine-protein phosphatase PP1-gamma catalytic subunit (Homo sapiens, UniProt P36873, D220V)", "sequence (P36873 2-323 D220V limits assumed)": "as the sequence (P36873 2-323 R96A limits assumed) above, with A95R, D219V counted along it", "assay": "Inhibition of Serine/threonine protein phosphatase 1 (PP1) mutants by natural toxins in D220V"}, "[12]": {"assay": "Exogenous inhibition concentration of Serine/threonine protein phosphatase 4 (PP4)"}, "[13]": {"assay": "Exogenous inhibition concentration of Serine/threonine protein phosphatase 5 (PP5)"}, "[14]": {"assay": "Inhibition of microcystin analogues to catalytic subunits of Serine/threonine protein phosphatase 1C"}, "[15]": {"system": "Jurkat", "assay": "Inhibition of production of IL-2 secretion in Jurkat cells", "format": "functional, cell-based", "details": "Homo sapiens"}, "[16]": {"system": "Jurkat", "assay": "Inhibition of production of beta-galactosidase thymidine kinase RGA in Jurkat cells", "format": "functional, cell-based", "details": "Homo sapiens"}, "[17]": {"system": "Jurkat", "assay": "Inhibition of production of beta-galactosidase IL-2 RGA in Jurkat cells", "format": "functional, cell-based", "details": "Homo sapiens"}, "[18]": {"assay": "Exogenous inhibition concentration of Serine/threonine protein phosphatase 2A (PP2A)"}, "[19]": {"assay": "Exogenous inhibition concentration of Serine/threonine protein phosphatase 2B (PP2B)"}, "[20]": {"assay": "Exogenous inhibition of Serine/threonine protein phosphatase 1 (PP1)", "parameters": "species or system Homo sapiens"}, "[21]": {"biological_target": "T1, Serine/threonine-protein phosphatase PP1-gamma catalytic subunit", "assay": "Inhibition of Serine/threonine protein phosphatase 1 by anhydride modified Cantharidin analogues"}, "[22]": {"assay": "Inhibition of growth after 72 hr continuous exposure to test compounds in Ovarian ADDP tumor cell lines", "format": "functional"}, "[23]": {"assay": "Inhibition of growth after 72 hr continuous exposure to test compounds in colon HT-29 tumor cell lines", "format": "functional", "details": "Homo sapiens, HT-29, 72 h"}, "[24]": {"assay": "Inhibition of growth after 72 hr continuous exposure to test compounds in Colon HCT 116 tumor cell lines", "format": "functional", "details": "Homo sapiens, HCT-116, 72 h"}, "[25]": {"assay": "Inhibition of growth after 72 hr continuous exposure to test compounds in Osteosarcoma 143B tumor cell lines", "format": "functional", "details": "Homo sapiens"}, "[26]": {"assay": "Inhibition of growth after 72 hr continuous exposure to test compounds in Ovarian A2780 tumor cell lines", "format": "functional", "details": "A2780, 72 h"}, "[27]": {"assay": "Exogenous inhibition concentration of Serine/threonine protein phosphatase 2C ([…])"}}, "note": "Numbered stars: 1 amine (or outer) side, 2 acyl side, 3 side chain; on linkers, the order of the positions; unused ones are H or OH. Bridge positions count the residues as written; N and C are the ends. Square brackets hold non-standard residues; d marks the D form. Peptide text beside a SMILES is read from it. Adda = CO[C@@H](Cc1ccccc1)[C@@H](C)/C=C(C)/C=C/[C@H](N[*:1])[C@H](C)C(=O)[*:2]; dAsp(3S-Me) = C[C@H](C(=O)[*:3])[C@@H](N[*:1])C(=O)[*:2]; d(γGlu) = O=C(O)[C@@H](CCC(=O)[*:2])N[*:1]; NMeDha = C=C(NC)C(=O)O"}
{"smiles": "C=C1C(=O)N[C@H](C)C(=O)N[C@@H](CC(C)C)C(=O)N[C@@H](C(=O)O)[C@H](C)C(=O)N[C@@H](CCCNC(=N)N)C(=O)N[C@@H](/C=C/C(C)=C/[C@H](C)[C@H](Cc2ccccc2)OC)[C@H](C)C(=O)N[C@@H](C(=O)O)CCC(=O)N1C", "note": "[MICROCYSTIN-LR] (R[Adda][d(γGlu)][NMeDha][dA]L[dAsp(3S-Me)]-OH; lactam N-7)", "values": [{"measurement": "IC50", "setting": "[1]", "result": 0.035, "unit": "µM"}, {"measurement": "IC50", "setting": "[2]", "result": 0.029, "unit": "µM"}, {"measurement": "IC50", "setting": "[3]", "result": 0.2, "unit": "µM"}, {"measurement": "IC50", "setting": "[4]", "result": 0.035, "unit": "µM"}, {"measurement": "IC50", "setting": "[5]", "result": 0.01, "unit": "nM"}, {"measurement": "IC50", "setting": "[6]", "result": 0.00056, "unit": "µM"}, {"measurement": "IC50", "setting": "[7]", "result": 0.0019, "unit": "µM"}, {"measurement": "IC50", "setting": "[8]", "result": 0.02, "unit": "nM"}, {"measurement": "IC50", "setting": "[9]", "result": "no inhibition"}, {"measurement": "IC50", "setting": "[10]", "result": 0.0008, "unit": "µM"}, {"measurement": "IC50", "setting": "[11]", "result": 0.02, "unit": "nM"}, {"measurement": "IC50", "setting": "[12]", "result": 8, "unit": "pM"}, {"measurement": "IC50", "setting": "[13]", "result": "> 0.001", "unit": "µM"}]}
{"smiles": "C=C1C(=O)N[C@H](CN)C(=O)N[C@@H](CC(C)C)C(=O)C[C@@H](C(=O)O)[C@H](C)C(=O)N[C@@H](C)C(=O)N[C@@H](/C=C/C(C)=C/[C@H](C)[C@H](Cc2ccccc2)OC)[C@H](C)C(=O)N[C@@H](C(=O)O)CCC(=O)N1C", "values": [{"measurement": "IC50", "setting": "[14]", "result": 0.003, "unit": "µM"}]}
{"smiles": "C/C=C/C[C@@H](C)[C@@H](O)[C@H]1C(=O)N[C@@H](CC)C(=O)N(C)CC(=O)N(C)[C@@H](CC(C)C)C(=O)N[C@@H](C(C)C)C(=O)N(C)[C@@H](CC(C)C)C(=O)N[C@@H](C)C(=O)N[C@H](C)C(=O)N(C)[C@@H](CC(C)C)C(=O)N(C)[C@@H](CC(C)C)C(=O)N(C)[C@@H](C(C)C)C(=O)N1C", "note": "[CYCLOSPORINE]", "values": [{"measurement": "IC50", "setting": "[15]", "result": 0.007, "unit": "µM"}, {"measurement": "IC50", "setting": "[16]", "result": "> 1", "unit": "µM"}, {"measurement": "IC50", "setting": "[17]", "result": 0.008, "unit": "µM"}]}
{"smiles": "C=C1C(=O)N[C@H](C)C(=O)N[C@@H](CC2CCCCC2)C(=O)C[C@@H](C(=O)O)[C@H](C)C(=O)N[C@@H](C)C(=O)N[C@@H](/C=C/C(C)=C/[C@H](C)[C@H](Cc2ccccc2)OC)[C@H](C)C(=O)N[C@@H](C(=O)O)CCC(=O)N1C", "values": [{"measurement": "IC50", "setting": "[14]", "result": 0.00052, "unit": "µM"}]}
{"smiles": "CO[C@@H](Cc1ccccc1)[C@@H](C)/C=C(C)/C=C/[C@@H]1NC(=O)[C@H](C)NC(=O)[C@@H](C)[C@H](C(=O)O)CC(=O)[C@H](CC(C)C)NC(=O)[C@@H](C)NC(=O)CN(C2CCCCC2)C(=O)CC[C@H](C(=O)O)NC(=O)[C@H]1C", "values": [{"measurement": "IC50", "setting": "[14]", "result": 0.0008, "unit": "µM"}]}
{"smiles": "COC[C@@H]([C@H](O)[C@H](O)C(=O)NCC[C@H](C)c1nc(/C=C/C[C@@H]2O[C@]3(C[C@@H](O)[C@@H]2C)O[C@H]([C@H](C[C@H](O)[C@H](C)[C@H](O)[C@H](C)/C=C(C)/C(C)=C/C=C/C(C)=C\\C#N)OC)[C@H](OP(=O)(O)O)C3(C)C)co1)N(C)C", "note": "[CALYCULIN A]", "values": [{"measurement": "IC50", "setting": "[1]", "result": 0.058, "unit": "µM"}, {"measurement": "IC50", "setting": "[2]", "result": "> 0.5", "unit": "µM"}, {"measurement": "IC50", "setting": "[3]", "result": "> 0.5", "unit": "µM"}, {"measurement": "IC50", "setting": "[4]", "result": "> 0.5", "unit": "µM"}, {"measurement": "IC50", "setting": "[5]", "result": 0.4, "unit": "nM"}, {"measurement": "IC50", "setting": "[18]", "result": 0.0002, "unit": "µM"}, {"measurement": "IC50", "setting": "[6]", "result": 0.0022, "unit": "µM"}, {"measurement": "IC50", "setting": "[7]", "result": "> 0.5", "unit": "µM"}, {"measurement": "IC50", "setting": "[8]", "result": 0.45, "unit": "nM"}, {"measurement": "IC50", "setting": "[9]", "result": "no inhibition"}, {"measurement": "IC50", "setting": "[19]", "result": "> 10000", "unit": "µM"}, {"measurement": "IC50", "setting": "[10]", "result": 0.048, "unit": "µM"}, {"measurement": "IC50", "setting": "[20]", "result": 0.0003, "unit": "µM"}, {"measurement": "IC50", "setting": "[11]", "result": 0.14, "unit": "nM"}, {"measurement": "IC50", "setting": "[13]", "result": "< 0.003", "unit": "µM"}]}
{"smiles": "CO[C@@H](Cc1ccccc1)[C@@H](C)/C=C(C)/C=C/[C@@H]1NC(=O)[C@H](C)NC(=O)[C@@H](C)[C@H](C(=O)O)CC(=O)[C@H](CC(C)C)NC(=O)[C@@H](C)NC(=O)CN(C)C(=O)CC[C@H](C(=O)O)NC(=O)[C@H]1C", "values": [{"measurement": "IC50", "setting": "[14]", "result": 0.0008, "unit": "µM"}]}
{"smiles": "COC1OC(=O)[C@H]2[C@@H]1[C@@H]1CC[C@H]2O1", "note": "(stereo partly drawn)", "values": [{"measurement": "IC50", "setting": "[21]", "result": "> 1000", "unit": "µM"}, {"measurement": "GI50", "setting": "[22]", "result": 323, "unit": "µM"}, {"measurement": "GI50", "setting": "[23]", "result": 28, "unit": "µM"}, {"measurement": "GI50", "setting": "[24]", "result": 143, "unit": "µM"}, {"measurement": "GI50", "setting": "[25]", "result": "> 1000", "unit": "µM"}, {"measurement": "GI50", "setting": "[26]", "result": 538, "unit": "µM"}]}
{"smiles": "CN(C)C(=O)C1C(C(=O)O)C2CC[C@H]1O2", "note": "(stereo partly drawn)", "values": [{"measurement": "IC50", "setting": "[15]", "result": 5, "unit": "µM"}, {"measurement": "IC50", "setting": "[16]", "result": 100, "unit": "µM"}, {"measurement": "IC50", "setting": "[17]", "result": 4.7, "unit": "µM"}]}
{"smiles": "CO[C@H]([C@H](O)CC(=O)[C@@H](C)[C@@H](O)CC[C@@H](C)[C@@H]1O[C@]2(CC[C@@H](C)[C@H](CC[C@H](C)C(C)=O)O2)CC[C@@H]1C)[C@H](OC(=O)C[C@@H](O)C1=C(C)C(=O)OC1=O)C(C)C", "note": "[TAUTOMYCIN]", "values": [{"measurement": "IC50", "setting": "[18]", "result": 0.0007, "unit": "µM"}, {"measurement": "IC50", "setting": "[9]", "result": "no inhibition"}, {"measurement": "IC50", "setting": "[27]", "result": 70000, "unit": "µM"}, {"measurement": "IC50", "setting": "[20]", "result": 0.0007, "unit": "µM"}]}
